According to ChEMBL document CHEMBL1177695, “Discovery and development of natural product-derived chemotherapeutic agents based on a medicinal chemistry approach” (J Nat Prod, 2010):
≈ marks a conversion by molar mass, not a printed value.

Tests used:
[1] = tested on: Human immunodeficiency virus 1; test: Antiviral activity against HIV1 3B infected in H9 cells assessed as inhibition of viral replication by p24 antigen ELISA; format: functional, organism-based
[2] = Cytotoxicity against human H9 cells after 4 days by coulter counter; format: cell-based; settings: human, H9 cells; read-out: TI
[3] = Therapeutic index, ratio of IC50 for human H9 cells to EC50 for HIV 3B; format: cell-based; settings: read-out: TI
[4] = Inhibition of tubulin polymerization
[5] = Cytotoxicity against human KB1 cells after 72 hrs by MTT assay; format: functional, cell-based; settings: KB1, 72 h
KB [6] = test: Cytotoxicity against human KB cells after 72 hrs by MTT assay; format: functional, cell-based; settings: for EC50: read-out: ED50 (the source's name)
[7] = Cytotoxicity against human KB-7d cells after 72 hrs by MTT assay; format: functional, cell-based; settings: KB7D; for EC50: read-out: ED50 (the source's name)
KB [8] = test: Cytotoxicity against human etoposide-resistant KB cells after 72 hrs by MTT assay
A-431 = test: Cytotoxicity against human A431 cells after 3 days by sulforhodamine B assay; format: functional, cell-based; settings: A-431, 72 h
[9] = Cytotoxicity against human KBVIN cells after 3 days by sulforhodamine B assay; format: functional, cell-based; settings: 72 h
PC-3 = test: Cytotoxicity against human PC3 cells after 3 days by sulforhodamine B assay; format: functional, cell-based; settings: PC-3, 72 h
HCT-8 = test: Cytotoxicity against human HCT8 cells after 3 days by sulforhodamine B assay; format: functional, cell-based; settings: HCT-8, 72 h
1A9 = test: Cytotoxicity against human 1A9 cells after 3 days by sulforhodamine B assay; format: functional, cell-based; settings: 1A9, 72 h
KB [10] = test: Cytotoxicity against human KB cells after 3 days by sulforhodamine B assay; format: functional, cell-based; settings: 72 h
A549 = test: Cytotoxicity against human A549 cells after 3 days by sulforhodamine B assay; format: functional, cell-based; settings: A549, 72 h
[11] = Human immunodeficiency virus 1, 3B, H9, read-out: EC50

For `COc1cc(=O)oc2c3c(ccc12)OC(C)(C)[C@H](OC(=O)C12CCC(C)(C(=O)O1)C2(C)C)[C@@H]3OC(=O)C12CCC(C)(C(=O)O1)C2(C)C` (some centres undefined), which EC50 [1, 11] is on record?
The EC50 was 0.05 µM.

What about the selectivity ratio at 96 h [2] of the same compound?
The selectivity ratio at 96 h was > 15.

Which EC50 [1, 11] does the source give for `C[C@]12CCC[C@]3(C(=O)OC1)[C@@H]2CC[C@@]12C[C@@H](CC[C@H]13)[C@](C)(O)C2` [NEOTRIPTERIFORDIN] here?
Its EC50 is 0.025 µM.

And the selectivity ratio [3]?
The selectivity ratio was 125.

With `OC[C@@H](O)C[C@H]1OCC2(O)c3c(cc(O)c4c3O[C@@H](c3cc(O)c(O)c(O)c3)[C@@H](O)C4)OC12O` (some centres undefined) as the compound, how does the EC50 [1, 11] read?
The EC50 was 4 µM.

And the selectivity ratio [3]?
The selectivity ratio was 9.5.

What does the source list for `COc1cc2c(cc1O)[C@@H](Cc1ccc(O)cc1)NCC2`?
EC50 [1, 11]: 2.8 µM; selectivity ratio [3]: 125

Which IC50 [4] does the source give for `O=c1cc(-c2ccccc2F)[nH]c2ccc(N3CCCC3)cc12` here?
Its IC50 is 0.46 µM.

Which IC50 [5] does the source give for `COc1cc([C@@H]2c3cc4c(cc3[C@@H](Nc3ccc(C#N)cc3)[C@H]3COC(=O)[C@H]23)OCO4)cc(OC)c1O` here?
The IC50 was 2.7 µM.

And the IC50 (KB [6])?
The IC50 was 0.61 µM.

What about the IC50 [7] of the same compound?
Its IC50 is 5 µM.

What about the IC50 (KB [8]) of the same compound?
The IC50 was 4 µM.

With `O=C(C[C@H](Cc1ccc(O)c(O)c1)C(=O)O)C1=Cc2cc(O)c(O)cc2[C@H](c2ccc(O)c(O)c2)[C@H]1CC[C@H](Cc1ccc(O)c(O)c1)C(=O)O` as the compound, how does the EC50 [1, 11] read?
Its EC50 is 1.9 µM.

And the selectivity ratio [3]?
Its selectivity ratio is 33.3.

Which results are given for `Cc1cc(=O)oc2c3c(ccc12)OC(C)(C)[C@H](OC(=O)C12CCC(C)(C(=O)O1)C2(C)C)[C@@H]3OC(=O)C12CCC(C)(C(=O)O1)C2(C)C` (some centres undefined)?
EC50 [1, 11]: 0.006 µM; selectivity ratio at 96 h [2]: > 39

For `CCC1=C(O)c2c(oc(-c3cccc4ccccc34)cc2=O)C(CC)(CC)C1=O` [2-(NAPHTHALEN-1-YL)-6,8,8-TRIETHYL DESMOSDUMOTIN B], which EC50 (A-431) is on record?
Its EC50 is 0.2 mg/L (≈ 0.515 µM).

What about the EC50 [9] of the same compound?
The EC50 was 0.2 mg/L (≈ 0.515 µM).

And the EC50 (PC-3)?
The EC50 was 0.2 mg/L (≈ 0.515 µM).

What about the EC50 (HCT-8) of the same compound?
Its EC50 is 0.2 mg/L (≈ 0.515 µM).

What about the EC50 (1A9) of the same compound?
Its EC50 is 0.2 mg/L (≈ 0.515 µM).

And the EC50 (KB [10])?
Its EC50 is 0.2 mg/L (≈ 0.515 µM).

What about the EC50 (A549) of the same compound?
Its EC50 is 0.2 mg/L (≈ 0.515 µM).

Which IC50 (A-431) does the source give for `C[C@@H]1C[C@H](O)[C@H](O)[C@@H](O[C@H]2CC[C@]3(C=O)[C@H]4CC[C@]5(C)[C@@H](c6ccc(=O)oc6)CC[C@]5(O)[C@@H]4CC[C@]3(O)C2)O1` [KALANCHOSIDE C] here?
The IC50 was 0.055 mg/L (≈ 0.101 µM).

What about the IC50 [9] of the same compound?
Its IC50 is 0.026 mg/L (≈ 0.0476 µM).

And the IC50 (PC-3)?
Its IC50 is 0.025 mg/L (≈ 0.0457 µM).

What about the IC50 (HCT-8) of the same compound?
The IC50 was 0.045 mg/L (≈ 0.0823 µM).

What about the IC50 (1A9) of the same compound?
Its IC50 is 0.012 mg/L (≈ 0.022 µM).

And the IC50 (KB [10])?
Its IC50 is 0.016 mg/L (≈ 0.0293 µM).

What about the IC50 (A549) of the same compound?
Its IC50 is 0.006 mg/L (≈ 0.011 µM).

With `COc1cc([C@@H]2c3cc4c(cc3[C@@H](NC3=CCC5(C=C3)OCCO5)[C@H]3COC(=O)[C@H]23)OCO4)cc(OC)c1O` as the compound, how does the IC50 [5] read?
The IC50 was 0.5 µM.

And the IC50 (KB [6])?
Its IC50 is 0.68 µM.

And the IC50 [7]?
Its IC50 is 1 µM.

And the IC50 (KB [8])?
The IC50 was 1.6 µM.

For `COC(=O)C[C@@H]1C(=O)CC[C@H](C)C(=O)O[C@@H]2[C@@H]3[C@@H](OC(C)=O)[C@@]45O[C@@]3(C)COC(=O)c3cnccc3[C@@H](C)[C@@H](O)C(=O)O[C@@H]([C@H](OC(C)=O)[C@H](OC(C)=O)[C@@]4(COC1=O)[C@@H]2OC(C)=O)[C@]5(C)O` [TRIPTONINE B], which selectivity ratio [3] is on record?
The selectivity ratio was > 1000.

For `COc1cc2ccc(=O)oc2c2c1OC(C)(C)[C@H](OC(=O)C13CCC(C)(C(=O)O1)C3(C)C)[C@@H]2OC(=O)C12CCC(C)(C(=O)O1)C2(C)C` (some centres undefined), which EC50 ([1]; h9) is on record?
Its EC50 is “Not Active”.

With `COc1cc([C@@H]2c3cc4c(cc3[C@@H](Nc3ccc(C(=O)N[C@@H](C)C(=O)OCc5ccccc5)cc3)[C@H]3COC(=O)[C@H]23)OCO4)cc(OC)c1O` as the compound, how does the EC50 (KB [6]) read?
Its EC50 is 0.5 mg/L.

And the EC50 [7]?
Its EC50 is 0.25 mg/L.

For `Cc1cc2ccc(=O)oc2c2c1OC(C)(C)[C@H](OC(=O)C13CCC(C)(C(=O)O1)C3(C)C)[C@@H]2OC(=O)C12CCC(C)(C(=O)O1)C2(C)C` (some centres undefined), which EC50 [1, 11] is on record?
Its EC50 is 0.21 µM.

What about the selectivity ratio at 96 h [2] of the same compound?
Its selectivity ratio at 96 h is > 16.

Which IC50 [5] does the source give for `COc1cc([C@@H]2c3cc4c(cc3[C@@H](Nc3ccc(N)cc3)[C@H]3COC(=O)[C@H]23)OCO4)cc(OC)c1O` here?
The IC50 was 3.5 µM.

And the IC50 (KB [6])?
Its IC50 is 0.59 µM.

And the IC50 [7]?
Its IC50 is 7.6 µM.

What about the IC50 (KB [8]) of the same compound?
Its IC50 is 2 µM.

With `CC(C)(O)[C@H](O)COc1c2occc2cc2ccc(=O)oc12` [HERACLENOL] as the compound, how does the EC50 [1, 11] read?
Its EC50 is 0.38 µM.

And the selectivity ratio [3]?
Its selectivity ratio is 870.

Which EC50 (KB [6]) does the source give for `COc1cc([C@@H]2c3cc4c(cc3[C@@H](Nc3ccc(NC(=O)c5cc([N+](=O)[O-])cn5C)cc3)[C@H]3COC(=O)[C@H]23)OCO4)cc(OC)c1O` here?
The EC50 was 0.04 µM.

And the EC50 [7]?
Its EC50 is 0.2 µM.

With `C[C@H]1O[C@H](O[C@H]2CC[C@]3(C=O)[C@H]4CC[C@]5(C)[C@@H](c6ccc(=O)oc6)CC[C@]5(O)[C@@H]4CC[C@]3(O)C2)[C@H](O)[C@@H](O)[C@@H]1O` [KALANCHOSIDE A] as the compound, how does the IC50 (A-431) read?
Its IC50 is 0.007 mg/L (≈ 0.0124 µM).

And the IC50 [9]?
Its IC50 is 0.003 mg/L (≈ 0.00533 µM).

What about the IC50 (PC-3) of the same compound?
The IC50 was 0.002 mg/L (≈ 0.00355 µM).

And the IC50 (HCT-8)?
The IC50 was 0.006 mg/L (≈ 0.0107 µM).

What about the IC50 (1A9) of the same compound?
The IC50 was 0.0008 mg/L (≈ 0.00142 µM).

What about the IC50 (KB [10]) of the same compound?
The IC50 was 0.003 mg/L (≈ 0.00533 µM).

And the IC50 (A549)?
Its IC50 is 0.0005 mg/L (≈ 0.000889 µM).

For `Cc1cc2ccc3c(c2oc1=O)[C@@H](OC(=O)C12CCC(C)(C(=O)O1)C2(C)C)[C@@H](OC(=O)C12CCC(C)(C(=O)O1)C2(C)C)C(C)(C)O3` (some centres undefined), which EC50 ([1]; h9) is on record?
The EC50 was “Not Active”.

Which results are given for `Cc1c(CBr)c(=O)oc2c3c(ccc12)OC(C)(C)[C@H](OC(=O)C12CCC(C)(C(=O)O1)C2(C)C)[C@@H]3OC(=O)C12CCC(C)(C(=O)O1)C2(C)C` (some centres undefined)?
EC50 [1, 11]: 0.00011 µM; selectivity ratio [3]: 186000
